Patent US20090269795A1, “Mutant alpha4betadelta GABAA receptor and methods of treating anxiety or irritability” (priority 2007, published 2009)

Columns and labels:
α1β2δ receptors = molecular target: T1, α1β2δ receptors (Rattus norvegicus, UniProt P62813+P63138); assay: Whole cell patch clamp of GABA-gated current, recombinant receptors in HEK-293 cells; format: cell-based, rat α1, rat β2, human δ; settings: 30 nM THP
T1 construct: expressed in transfected cells; host or cells: HEK-293
Description: Recombinant receptors: Transfection—Plasmids obtained from S. Vicini (rat α1, α5, β2, β3 and γ2), P. Whiting (human α4 and δ) and N. L. Harrison (mouse α4) were propagated in E coli DH5α and prepared using Qiagen Maxi- or Midi-prep kits. (Rat, mouse and human α1, β2, β3 and γ2 subunits are identical or nearly identical.) All receptors were transfected at a 1:1:1 ratio, except α1β2γ2 (1:1:5)^12, α4βδ (5:1:5)^13 and α4β2γ2 (5:1:1). HEK-293 cells were maintained in medium (DMEM:Ham's F-12 1:1) supplemented with 10% fetal calf serum at 37° C. in a humid 5% CO2 atmosphere. Cells were transfected using calcium phosphate or Polyfect (Qiagen) and co-transfected with enhanced green fluorescent protein (ratio of DNA to eGFP was 6:1 or 10:1 depending on the DNA concentration) for visualization. α4-containing GABAA receptors required 2-3 d for maximal levels of expression; all other receptors were recorded 1-2 d after transfection. Because mouse α4 and human α4-containing receptors yielded the same results, the currents were averaged together.
Whole cell patch clamp recording—GABA-gated currents were recorded at room temperature (20-22° C.) at a holding potential of −50 mV^14. […] Currents were recorded using an Axopatch 1D amplifier (Axon Instruments) filtered at 2 kHz (four-pole Bessel filter) and detected at 10 kHz (pClamp 5.1). […]

α1β2γ2 receptors = molecular target: T2, α1β2γ2 receptors (Rattus norvegicus, UniProt P62813+P63138); assay: as above; format: cell-based; settings: 30 nM THP
T2 construct: expressed in transfected cells; host or cells: HEK-293
Description: Recombinant receptors: Transfection—Plasmids obtained from S. Vicini (rat α1, α5, β2, β3 and γ2), P. Whiting (human α4 and δ) and N. L. Harrison (mouse α4) were propagated in E coli DH5α and prepared using Qiagen Maxi- or Midi-prep kits. (Rat, mouse and human α1, β2, β3 and γ2 subunits are identical or nearly identical.) All receptors were transfected at a 1:1:1 ratio, except α1β2γ2 (1:1:5)^12, α4βδ (5:1:5)^13 and α4β2γ2 (5:1:1). HEK-293 cells were maintained in medium (DMEM:Ham's F-12 1:1) supplemented with 10% fetal calf serum at 37° C. in a humid 5% CO2 atmosphere.
The pipet solution contained (in mM): N-methyl-D-glucamine chloride 120, Cs4BAPTA 5 (Calbiochem), Mg-ATP 5, and an ATP regeneration system (20 mM Tris phosphocreatine and creatine kinase). Internal [Cl^−] or the holding potential were varied, using gluconate as the anion, to alter the direction of Cl^− flow, corrected for the junction potential.
HEK-293 cells were maintained in medium (DMEM:Ham's F-12 1:1) supplemented with 10% fetal calf serum at 37° C. in a humid 5% CO2 atmosphere.

[1] = tested on: CA1 hippocampal pyramidal cells; assay: Input resistance and neuronal excitability (spiking), hippocampal slice; format: cell-based, mouse
Method: Tonic current was recorded as the difference current produced by 120 μM gabazine, which blocks all GABAA receptor, before and after 30 nM THP^24. Current was also recorded in response to 2 s 10 mV steps in the holding potential, and current-voltage curves generated to the steady-state current. Because fast-inactivating conductances would not be excluded in a voltage ramp, stable steady-state current responses were used instead to construct the current-voltage (IV) curves. Input resistance (Rm) was calculated from the current response to voltage steps from −60 to −40 mV using Ohm's Law. The reversal potential was determined by the […] of the IV curve (−90 to −10 mV). The gabazine-sensitive slope conductance was assessed as the slope of the linear portion of outward current plot recorded before and after THP after subtraction of the gabazine-generated current (in the presence of L-655,708 to block α5-GABAA receptors). Only data with a stable baseline and pipet access resistance <10 MΩ were included in the analysis.
Effects of THP on cell excitability were tested by monitoring spiking using cell attached patch recordings^31 in voltage clamp mode (−40 mV holding potential, 150 mM NaCl intrapipet solution) or assessing the current threshold to spiking and spike frequency in current clamp mode (0.01-0.3 nA steps, starting from −1 nA, 1 s duration). (More complete details are supplied in the Supplementary Methods.)

[2] = puberty, whole cell current clamp

T1 sequence (P62813 28-455): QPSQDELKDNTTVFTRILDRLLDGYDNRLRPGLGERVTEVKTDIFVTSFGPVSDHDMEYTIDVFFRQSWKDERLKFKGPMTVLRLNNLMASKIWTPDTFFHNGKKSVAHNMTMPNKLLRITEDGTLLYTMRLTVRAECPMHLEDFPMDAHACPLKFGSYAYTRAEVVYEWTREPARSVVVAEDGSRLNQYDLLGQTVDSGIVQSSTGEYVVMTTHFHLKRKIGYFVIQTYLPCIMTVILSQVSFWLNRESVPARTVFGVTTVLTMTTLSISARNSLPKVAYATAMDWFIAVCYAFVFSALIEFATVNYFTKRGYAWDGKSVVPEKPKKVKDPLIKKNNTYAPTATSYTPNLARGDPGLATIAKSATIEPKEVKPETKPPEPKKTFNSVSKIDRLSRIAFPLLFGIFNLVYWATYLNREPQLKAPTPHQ
T1 sequence (P63138 25-474 limits assumed): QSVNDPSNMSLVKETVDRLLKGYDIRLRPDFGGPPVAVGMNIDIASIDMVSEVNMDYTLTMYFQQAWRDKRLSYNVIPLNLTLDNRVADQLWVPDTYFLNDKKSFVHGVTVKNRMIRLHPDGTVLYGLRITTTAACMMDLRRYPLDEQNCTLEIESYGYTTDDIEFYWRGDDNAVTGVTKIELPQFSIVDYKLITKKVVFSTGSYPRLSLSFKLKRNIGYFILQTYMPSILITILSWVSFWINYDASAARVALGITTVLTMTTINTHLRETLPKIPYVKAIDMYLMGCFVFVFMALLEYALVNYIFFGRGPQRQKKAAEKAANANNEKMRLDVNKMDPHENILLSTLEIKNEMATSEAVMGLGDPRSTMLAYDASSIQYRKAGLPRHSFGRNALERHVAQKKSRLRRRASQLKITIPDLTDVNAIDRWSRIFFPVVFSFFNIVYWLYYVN
T1 sequence (O14764 25-452 partner): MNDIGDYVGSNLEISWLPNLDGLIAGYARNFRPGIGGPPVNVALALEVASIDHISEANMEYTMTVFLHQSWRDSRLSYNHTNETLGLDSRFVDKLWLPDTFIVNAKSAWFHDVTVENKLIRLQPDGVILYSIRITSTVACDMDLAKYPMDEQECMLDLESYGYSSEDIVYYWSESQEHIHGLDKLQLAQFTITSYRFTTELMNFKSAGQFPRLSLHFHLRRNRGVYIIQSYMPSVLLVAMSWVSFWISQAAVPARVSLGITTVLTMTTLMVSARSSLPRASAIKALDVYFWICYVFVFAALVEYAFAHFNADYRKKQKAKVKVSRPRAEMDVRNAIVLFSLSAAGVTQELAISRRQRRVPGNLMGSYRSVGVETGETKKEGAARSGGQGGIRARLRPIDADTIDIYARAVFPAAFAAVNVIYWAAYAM
T2 sequence (P62813 28-455): as the sequence (P62813 28-455) above
T2 sequence (P63138 25-474 limits assumed): as the sequence (P63138 25-474 limits assumed) above
T2 sequence (P18508 39-466 partner): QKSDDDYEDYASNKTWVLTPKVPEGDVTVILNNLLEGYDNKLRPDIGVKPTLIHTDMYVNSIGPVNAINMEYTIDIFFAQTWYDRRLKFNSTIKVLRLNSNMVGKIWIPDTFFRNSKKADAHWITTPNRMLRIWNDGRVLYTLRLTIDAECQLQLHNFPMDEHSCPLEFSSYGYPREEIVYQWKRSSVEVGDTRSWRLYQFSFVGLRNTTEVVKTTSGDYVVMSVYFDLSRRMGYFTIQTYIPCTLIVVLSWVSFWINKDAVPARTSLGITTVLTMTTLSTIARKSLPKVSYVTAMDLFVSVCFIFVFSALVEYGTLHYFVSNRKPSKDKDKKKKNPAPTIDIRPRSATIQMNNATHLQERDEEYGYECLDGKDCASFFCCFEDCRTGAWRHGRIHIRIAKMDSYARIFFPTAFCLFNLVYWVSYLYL

SMILES: CC(=O)[C@H]1CC[C@H]2[C@@H]3CC[C@H]4C[C@H](O)CC[C@]4(C)[C@H]3CC[C@]12C [THP, 3α-OH-5α[β]-pregnan-20-one]
- effect on outward current (α1β2δ receptors): either increased or had no effect
- effect on outward current (α1β2γ2 receptors): either increased or had no effect
- increase of input resistance ([1]; 30 nM THP, puberty, 10 mV steps −60 to −40): 38±5%
- effect on input resistance ([1]; before puberty): decreased input resistance
- effect on neuronal excitability ([1]; before puberty): decreased neuronal excitability
- effect on spiking, cell-attached ([1]; puberty): increased spiking
- effect on action potential frequency [1, 2]: increased action potential frequency
- effect on current threshold for spiking (I threshold) [1, 2]: reduced the amount of current necessary for triggering a spike
- THP-induced increase of input resistance ([1]; slices from δ−/− mice): not seen
- excitatory effect on neuronal firing ([1]; slices from δ−/− mice): not observed
